Measurements taken from PubChem BioAssay (NCI).
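Assay format: 96-well plates, 48-hour exposure. GI50 = concentration required for 50% inhibition of growth. At the TGI there is no net growth.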

What was measured:
Test in all cases: NCI anticancer screen, dose series, 48 h
HS 578T breast = test system: HS 578T breast
SK-OV-3 ovarian = test system: SK-OV-3 ovarian
SW-620 colon = test system: SW-620 colon
HCT-15 colon = test system: HCT-15 colon
COLO 205 colon = test system: COLO 205 colon
T-47D breast = test system: T-47D breast
HT29 colon = test system: HT29 colon
NCI-H460 lung = test system: NCI-H460 lung
OVCAR-8 ovarian = test system: OVCAR-8 ovarian
HOP-62 NSCLC = test system: HOP-62 NSCLC
TK-10 renal = test system: TK-10 renal
OVCAR-3 ovarian = test system: OVCAR-3 ovarian
UACC-257 melanoma = test system: UACC-257 melanoma
MDA-MB-231 breast = test system: MDA-MB-231 breast
HOP-92 NSCLC = test system: HOP-92 NSCLC
HL-60(TB) leukemia = test system: HL-60(TB) leukemia
A498 renal = test system: A498 renal
MOLT-4 leukemia = test system: MOLT-4 leukemia
NCI-H522 lung = test system: NCI-H522 lung
SF-539 CNS = test system: SF-539 CNS
M14 melanoma = test system: M14 melanoma
SR leukemia = test system: SR leukemia
SN12C renal = test system: SN12C renal
OVCAR-5 ovarian = test system: OVCAR-5 ovarian
MCF7 breast = test system: MCF7 breast
RPMI-8226 leukemia = test system: RPMI-8226 leukemia
UACC-62 melanoma = test system: UACC-62 melanoma
K-562 leukemia = test system: K-562 leukemia
NCI-H226 lung = test system: NCI-H226 lung
NCI-H23 lung = test system: NCI-H23 lung
SNB-75 CNS = test system: SNB-75 CNS
SK-MEL-2 melanoma = test system: SK-MEL-2 melanoma
HCT-116 colon = test system: HCT-116 colon
CCRF-CEM leukemia = test system: CCRF-CEM leukemia
KM12 colon = test system: KM12 colon
RXF 393 renal = test system: RXF 393 renal
ACHN renal = test system: ACHN renal
786-0 renal = test system: 786-0 renal
U251 CNS = test system: U251 CNS
SF-295 CNS = test system: SF-295 CNS
SNB-19 CNS = test system: SNB-19 CNS
SF-268 CNS = test system: SF-268 CNS
IGROV1 ovarian = test system: IGROV1 ovarian
OVCAR-4 ovarian = test system: OVCAR-4 ovarian
SK-MEL-28 melanoma = test system: SK-MEL-28 melanoma
SK-MEL-5 melanoma = test system: SK-MEL-5 melanoma
BT-549 breast = test system: BT-549 breast
HCC-2998 colon = test system: HCC-2998 colon
LOX IMVI melanoma = test system: LOX IMVI melanoma
MALME-3M melanoma = test system: MALME-3M melanoma
UO-31 renal = test system: UO-31 renal
NCI/ADR-RES ovarian = test system: NCI/ADR-RES ovarian
DU-145 prostate = test system: DU-145 prostate

COc1ccc(-c2nn(-c3cccc(Cl)c3)cc2C=C(C#N)C#N)cc1
GI50 (HS 578T breast): 1.57 µM
TGI (HS 578T breast): 7.04 µM
GI50 (SK-OV-3 ovarian): 2.66 µM
TGI (SK-OV-3 ovarian): 5.72 µM
GI50 (SW-620 colon): 1.9 µM
TGI (SW-620 colon): 5.45 µM
GI50 (HCT-15 colon): 3.24 µM
TGI (HCT-15 colon): > 100 µM
GI50 (COLO 205 colon): 4.04 µM
TGI (COLO 205 colon): 10.5 µM
GI50 (T-47D breast): 3.34 µM
TGI (T-47D breast): 21.8 µM
GI50 (HT29 colon): 2.48 µM
TGI (HT29 colon): 5.56 µM
GI50 (NCI-H460 lung): 2.05 µM
TGI (NCI-H460 lung): 5.37 µM
GI50 (OVCAR-8 ovarian): 2.2 µM
TGI (OVCAR-8 ovarian): 5.77 µM
GI50 (HOP-62 NSCLC): 2.59 µM
TGI (HOP-62 NSCLC): 6.04 µM
GI50 (TK-10 renal): 2.6 µM
TGI (TK-10 renal): 6.48 µM
GI50 (OVCAR-3 ovarian): 2.2 µM
TGI (OVCAR-3 ovarian): 4.9 µM
GI50 (UACC-257 melanoma): 1.82 µM
TGI (UACC-257 melanoma): 5.27 µM
GI50 (MDA-MB-231 breast): 2.03 µM
TGI (MDA-MB-231 breast): 5.14 µM
GI50 (HOP-92 NSCLC): 1.26 µM
TGI (HOP-92 NSCLC): 3.98 µM
GI50 (HL-60(TB) leukemia): 2.39 µM
TGI (HL-60(TB) leukemia): 6.37 µM
GI50 (A498 renal): 1.23 µM
TGI (A498 renal): 5.95 µM
GI50 (MOLT-4 leukemia): 2.12 µM
TGI (MOLT-4 leukemia): 6.12 µM
GI50 (NCI-H522 lung): 2.21 µM
TGI (NCI-H522 lung): 5.76 µM
GI50 (SF-539 CNS): 2.3 µM
TGI (SF-539 CNS): 5.44 µM
GI50 (M14 melanoma): 2.39 µM
TGI (M14 melanoma): 6.92 µM
GI50 (SR leukemia): 1.54 µM
TGI (SR leukemia): 3.66 µM
GI50 (SN12C renal): 3.35 µM
TGI (SN12C renal): > 100 µM
GI50 (OVCAR-5 ovarian): 3.68 µM
TGI (OVCAR-5 ovarian): 48.4 µM
GI50 (MCF7 breast): 2.35 µM
TGI (MCF7 breast): 7.72 µM
GI50 (RPMI-8226 leukemia): 2.3 µM
TGI (RPMI-8226 leukemia): 7.1 µM
GI50 (UACC-62 melanoma): 2.39 µM
TGI (UACC-62 melanoma): 10.6 µM
GI50 (K-562 leukemia): 2.01 µM
TGI (K-562 leukemia): 10.4 µM
GI50 (NCI-H226 lung): 2.74 µM
TGI (NCI-H226 lung): 11.8 µM
GI50 (NCI-H23 lung): 2.68 µM
TGI (NCI-H23 lung): 7.66 µM
GI50 (SNB-75 CNS): 1.81 µM
TGI (SNB-75 CNS): 4.51 µM
GI50 (SK-MEL-2 melanoma): 2.37 µM
TGI (SK-MEL-2 melanoma): 4.83 µM
GI50 (HCT-116 colon): 1.73 µM
TGI (HCT-116 colon): 4.44 µM
GI50 (CCRF-CEM leukemia): 1.43 µM
TGI (CCRF-CEM leukemia): 4.76 µM
GI50 (KM12 colon): 2.83 µM
TGI (KM12 colon): 8.86 µM
GI50 (RXF 393 renal): 1.85 µM
TGI (RXF 393 renal): 4.99 µM
GI50 (ACHN renal): 2.64 µM
TGI (ACHN renal): 8.82 µM
GI50 (786-0 renal): 2.25 µM
TGI (786-0 renal): 6.36 µM
GI50 (U251 CNS): 1.59 µM
TGI (U251 CNS): 3.33 µM
GI50 (SF-295 CNS): 2.31 µM
TGI (SF-295 CNS): 5.31 µM
GI50 (SNB-19 CNS): 2.63 µM
TGI (SNB-19 CNS): > 100 µM
GI50 (SF-268 CNS): 2.5 µM
TGI (SF-268 CNS): 9.14 µM
GI50 (IGROV1 ovarian): 2.85 µM
TGI (IGROV1 ovarian): 6.29 µM
GI50 (OVCAR-4 ovarian): 2.29 µM
TGI (OVCAR-4 ovarian): 6.48 µM
GI50 (SK-MEL-28 melanoma): 2.35 µM
TGI (SK-MEL-28 melanoma): 5.84 µM
GI50 (SK-MEL-5 melanoma): 2.28 µM
TGI (SK-MEL-5 melanoma): 5.87 µM
GI50 (BT-549 breast): 1.55 µM
TGI (BT-549 breast): 4.05 µM
GI50 (HCC-2998 colon): 3.67 µM
TGI (HCC-2998 colon): 14 µM
GI50 (LOX IMVI melanoma): 2.08 µM
TGI (LOX IMVI melanoma): 4.81 µM
GI50 (MALME-3M melanoma): 2.66 µM
TGI (MALME-3M melanoma): 7.76 µM
GI50 (UO-31 renal): 2.21 µM
TGI (UO-31 renal): 7.88 µM
GI50 (NCI/ADR-RES ovarian): 2.49 µM
TGI (NCI/ADR-RES ovarian): 7.17 µM
GI50 (DU-145 prostate): 3.55 µM
TGI (DU-145 prostate): 90.1 µM
